Laboratory results from the supplement of paper PMC10307832.

Legend:
Assay in all cases: relative viability (nuclei count vs DMSO), 5 days (fraction); higher = more cells survive
Pictilisib + Pemetrexed = compound: CS(=O)(=O)N1CCN(Cc2cc3nc(-c4cccc5[nH]ncc45)nc(N4CCOCC4)c3s2)CC1 [Pictilisib] + Nc1nc2[nH]cc(CCc3ccc(C(=O)N[C@@H](CCC(=O)O)C(=O)O)cc3)c2c(=O)[nH]1 [Pemetrexed] (partner 0.2 µM)
Outline: (§1)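 Lung cancer cell lines in 1536-well plates were dosed by pin tool the day after seeding, either with one drug alone or with a fixed anchor-drug dose plus five library-drug doses (not always all listed) in √10 steps. After 5 days, cells were fixed and their nuclei stained in one step (final 0.05% Triton X-100, 1% formaldehyde, 1 ug/ml Hoechst), then counted on 4× images. Relative viability is the nuclei count in treated wells divided by that in vehicle wells. Values are medians of duplicate plates.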

MK-2206 + Phenformin = compound: NC1(c2ccc(-c3nc4ccn5c(=O)[nH]nc5c4cc3-c3ccccc3)cc2)CCC1 [MK-2206] + N=C(N)NC(=N)NCCc1ccccc1 [Phenformin] (partner 250 µM)
Outline: as §1

Pictilisib + Lapatinib = compound: CS(=O)(=O)N1CCN(Cc2cc3nc(-c4cccc5[nH]ncc45)nc(N4CCOCC4)c3s2)CC1 [Pictilisib] + CS(=O)(=O)CCNCc1ccc(-c2ccc3ncnc(Nc4ccc(OCc5cccc(F)c5)c(Cl)c4)c3c2)o1 [Lapatinib] (partner 2 µM)
Outline: as §1

Pictilisib + Trametinib = compound: CS(=O)(=O)N1CCN(Cc2cc3nc(-c4cccc5[nH]ncc45)nc(N4CCOCC4)c3s2)CC1 [Pictilisib] + CC(=O)Nc1cccc(-n2c(=O)n(C3CC3)c(=O)c3c(Nc4ccc(I)cc4F)n(C)c(=O)c(C)c32)c1 [Trametinib] (partner 0.02 µM)
Outline: as §1

MK-2206 + OSI-027 = compound: NC1(c2ccc(-c3nc4ccn5c(=O)[nH]nc5c4cc3-c3ccccc3)cc2)CCC1 [MK-2206] + COc1cccc2cc(-c3nc([C@H]4CC[C@H](C(=O)O)CC4)n4ncnc(N)c34)[nH]c12 [OSI-027] (partner 0.5 µM)
Outline: as §1

Row | Cell Line | relative viability (Pictilisib + Pemetrexed; first compound 0.02 µM) | relative viability (Pictilisib + Pemetrexed; first compound 0.06325 µM) | relative viability (Pictilisib + Pemetrexed; first compound 0.6325 µM) | relative viability (Pictilisib + Pemetrexed; first compound 2 µM) | relative viability (MK-2206 + Phenformin; first compound 0.01 µM) | relative viability (MK-2206 + Phenformin; first compound 0.03162 µM) | relative viability (MK-2206 + Phenformin; first compound 0.3162 µM) | relative viability (MK-2206 + Phenformin; first compound 1 µM) | relative viability (Pictilisib + Lapatinib; first compound 0.02 µM) | relative viability (Pictilisib + Lapatinib; first compound 0.06325 µM) | relative viability (Pictilisib + Lapatinib; first compound 0.6325 µM) | relative viability (Pictilisib + Lapatinib; first compound 2 µM) | relative viability (Pictilisib + Trametinib; first compound 0.02 µM) | relative viability (Pictilisib + Trametinib; first compound 0.06325 µM) | relative viability (Pictilisib + Trametinib; first compound 0.6325 µM) | relative viability (Pictilisib + Trametinib; first compound 2 µM) | relative viability (MK-2206 + OSI-027; first compound 0.01 µM) | relative viability (MK-2206 + OSI-027; first compound 0.03162 µM) | relative viability (MK-2206 + OSI-027; first compound 0.3162 µM) | relative viability (MK-2206 + OSI-027; first compound 1 µM)
1 | NCI-H1915 | 0.548 | 0.524 | 0.464 | 0.394 | 0.351 | 0.384 | 0.379 | 0.367 | 0.96 | 1.02 | 0.916 | 0.935 | 0.322 | 0.295 | 0.285 | 0.244 | 0.646 | 0.693 | 0.606 | 0.496
2 | 201T | 0.301 | 0.352 | 0.289 | 0.276 | 0.446 | 0.417 | 0.42 | 0.52 | 1.02 | 1.01 | 0.969 | 0.933 | 0.737 | 0.686 | 0.659 | 0.585 | 0.772 | 0.766 | – | 0.494
3 | NCI-H1437 | 0.317 | 0.318 | 0.274 | 0.215 | 0.297 | 0.265 | 0.306 | 0.301 | 0.768 | 0.859 | 0.605 | 0.313 | 0.472 | 0.418 | 0.289 | 0.194 | 0.91 | 0.844 | 0.746 | 0.675
4 | A-427 | 0.955 | 0.984 | 0.969 | 0.803 | 0.325 | 0.297 | 0.219 | 0.25 | 0.98 | 1.09 | 1 | 0.932 | 0.733 | 0.716 | 0.505 | 0.287 | 0.529 | 0.47 | 0.439 | 0.372
5 | HCC-366 | 0.172 | 0.195 | 0.248 | 0.122 | 0.614 | 0.686 | 0.564 | 0.39 | 1.04 | 1 | 0.665 | 0.162 | 0.374 | 0.2 | 0.157 | 0.0661 | 0.927 | 0.962 | 0.569 | 0.44
6 | BEN | 0.809 | 0.858 | 0.81 | 0.546 | 0.258 | 0.267 | 0.272 | 0.295 | 0.715 | 0.755 | 0.844 | 0.498 | 1.02 | 0.953 | 0.962 | 0.636 | 0.3 | 0.301 | 0.271 | 0.297
7 | NCI-H2347 | 0.459 | 0.455 | 0.391 | 0.367 | 0.443 | 0.345 | 0.51 | 0.224 | 0.86 | 0.973 | 0.992 | 0.729 | 0.271 | 0.269 | 0.25 | 0.24 | 0.384 | 0.375 | 0.413 | 0.277
8 | NCI-H650 | 1.02 | 0.887 | 0.701 | 0.525 | 0.458 | 0.473 | 0.471 | 0.353 | 1.27 | 0.997 | 0.798 | 0.689 | 1.03 | 0.969 | 0.8 | 0.5 | 0.476 | 0.509 | 0.417 | 0.415
9 | NCI-H1975 | 0.304 | 0.301 | 0.272 | 0.193 | 0.428 | 0.402 | 0.312 | 0.326 | 0.94 | 0.781 | 0.541 | 0.212 | 0.326 | 0.369 | 0.194 | 0.142 | 0.745 | 0.611 | 0.42 | 0.381
10 | NCI-H2126 | 0.692 | 0.661 | 0.518 | 0.379 | 0.515 | 0.501 | 0.446 | 0.426 | 0.801 | 0.748 | 0.63 | 0.462 | 0.532 | 0.531 | 0.378 | 0.278 | 0.709 | 0.683 | 0.567 | 0.48
11 | NCI-H2087 | 0.7 | 0.736 | 0.612 | 0.553 | 0.531 | 0.361 | 0.404 | 0.317 | 1.12 | 0.926 | 1.06 | 0.952 | 0.204 | 0.165 | 0.138 | 0.153 | 0.548 | 0.636 | 0.392 | 0.303
